Assay results from ChEMBL document CHEMBL4627352, “New acrylamide-sulfisoxazole conjugates as dihydropteroate synthase inhibitors” (Bioorg Med Chem, 2020).
Values after ≈ are worked out from the molar mass of the structure shown. Active and inactive are the calls of the source. The rule behind the calls is not given here.

Columns and labels:
[1] = test system: Escherichia coli ATCC 25922; test: Inhibition of DHPS in Escherichia coli ATCC 25922 assessed as inhibition of bacterial growth incubated for 24 hrs in presence of folate precursor, pABA by microbroth dilution method
Klebsiella pneumoniae [2] = test: Inhibition of DHPS in Klebsiella pneumoniae assessed as antibacterial activity by measuring inhibition of bacterial growth incubated for 24 hrs by microbroth dilution method
Proteus vulgaris [3] = test: Inhibition of DHPS in Proteus vulgaris assessed as antibacterial activity by measuring inhibition zone at 5 mg/mL incubated for 24 hrs by disk diffusion method
hTERT-BJ = test: Cytotoxicity against human hTERT-BJ1 cells at 50 uM by acid phosphatase assay relative to control; type: cell-based
Escherichia coli [4] = test: Inhibition of DHPS in Escherichia coli assessed as antibacterial activity by measuring inhibition zone at 5 mg/mL incubated for 24 hrs by disk diffusion method
[5] = test system: Syncephalastrum racemosum; test: Potency index, ratio of amphotericin B MIC to compound MIC for Syncephalastrum racemosum assessed as inhibition of DHPS-mediated fungal growth incubated for 48 hrs by microbroth dilution method
Proteus vulgaris [6] = test: Inhibition of DHPS in Proteus vulgaris assessed as antibacterial activity by measuring inhibition of bacterial growth incubated for 24 hrs by microbroth dilution method
Klebsiella pneumoniae [7] = test: Inhibition of DHPS in Klebsiella pneumoniae assessed as antibacterial activity by measuring inhibition zone at 5 mg/mL incubated for 24 hrs by disk diffusion method
[8] = test system: Syncephalastrum racemosum; test: Inhibition of DHPS in Syncephalastrum racemosum assessed as antifungal activity by measuring inhibition of fungal growth incubated for 48 hrs by microbroth dilution method
Bacillus subtilis [9] = test: Inhibition of DHPS in Bacillus subtilis assessed as antibacterial activity by measuring inhibition of bacterial growth incubated for 24 hrs by microbroth dilution method
[10] = test system: Syncephalastrum racemosum; test: Inhibition of DHPS in Syncephalastrum racemosum assessed as antifungal activity by measuring inhibition zone at 5 mg/mL incubated for 48 hrs by disk diffusion method
Streptococcus pneumoniae [11] = test: Inhibition of DHPS in Streptococcus pneumoniae assessed as antibacterial activity by measuring inhibition of bacterial growth incubated for 24 hrs by microbroth dilution method
Geotrichum candidum [12] = test: Inhibition of DHPS in Geotrichum candidum assessed as antifungal activity by measuring inhibition zone at 5 mg/mL incubated for 48 hrs by disk diffusion method
[13] = test system: Escherichia coli ATCC 25922; test: Inhibition of DHPS in Escherichia coli ATCC 25922 assessed as inhibition of bacterial growth incubated for 24 hrs in presence of folate dependent metabolite, methionine by microbroth dilution method
[14] = test system: Staphylococcus epidermidis; test: Inhibition of DHPS in Staphylococcus epidermidis assessed as antibacterial activity by measuring inhibition zone at 5 mg/mL incubated for 24 hrs by disk diffusion method
Streptococcus pneumoniae [15] = test: Inhibition of DHPS in Streptococcus pneumoniae assessed as antibacterial activity by measuring inhibition zone at 5 mg/mL incubated for 24 hrs by disk diffusion method
Aspergillus fumigatus [16] = test: Inhibition of DHPS in Aspergillus fumigatus assessed as antifungal activity by measuring inhibition zone at 5 mg/mL incubated for 48 hrs by disk diffusion method
Aspergillus fumigatus [17] = test: Inhibition of DHPS in Aspergillus fumigatus assessed as antifungal activity by measuring inhibition of fungal growth incubated for 48 hrs by microbroth dilution method
Escherichia coli [18] = test: Inhibition of DHPS in Escherichia coli assessed as antibacterial activity by measuring inhibition of bacterial growth incubated for 24 hrs by microbroth dilution method
[19] = test system: Staphylococcus epidermidis; test: Inhibition of DHPS in Staphylococcus epidermidis assessed as antibacterial activity by measuring inhibition of bacterial growth incubated for 24 hrs by microbroth dilution method
Geotrichum candidum [20] = test: Inhibition of DHPS in Geotrichum candidum assessed as antifungal activity by measuring inhibition of fungal growth incubated for 48 hrs by microbroth dilution method
Bacillus subtilis [21] = test: Inhibition of DHPS in Bacillus subtilis assessed as antibacterial activity by measuring inhibition zone at 5 mg/mL incubated for 24 hrs by disk diffusion method
Bacillus subtilis [22] = test: Potency index, ratio of ampicillin MIC to compound MIC for Bacillus subtilis assessed as inhibition of DHPS-mediated bacterial growth incubated for 24 hrs by microbroth dilution method
Escherichia coli [23] = test: Potency index, ratio of sulfisoxazole MIC to compound MIC for Escherichia coli assessed as inhibition of DHPS-mediated bacterial growth incubated for 24 hrs by microbroth dilution method
Aspergillus fumigatus [24] = test: Potency index, ratio of sulfisoxazole MIC to compound MIC for Aspergillus fumigatus assessed as inhibition of DHPS-mediated fungal growth incubated for 48 hrs by microbroth dilution method
Geotrichum candidum [25] = test: Potency index, ratio of sulfisoxazole MIC to compound MIC for Geotrichum candidum assessed as inhibition of DHPS-mediated fungal growth incubated for 48 hrs by microbroth dilution method
Klebsiella pneumoniae [26] = test: Potency index, ratio of sulfisoxazole MIC to compound MIC for Klebsiella pneumoniae assessed as inhibition of DHPS-mediated bacterial growth incubated for 24 hrs by microbroth dilution method
[27] = test system: Syncephalastrum racemosum; test: Potency index, ratio of sulfisoxazole MIC to compound MIC for Syncephalastrum racemosum assessed as inhibition of DHPS-mediated fungal growth incubated for 48 hrs by microbroth dilution method

Compound | inhibition [1] | MIC (Klebsiella pneumoniae [2]) [µg/mL] | inhibition zone (IZ) (Proteus vulgaris [3]) | Activity (hTERT-BJ) [%] | inhibition zone (IZ) (Escherichia coli [4]) [mm] | inhibition zone (IZ) (Klebsiella pneumoniae [7]) [mm] | MIC [8] [µg/mL] | MIC (Bacillus subtilis [9]) [µg/mL] | inhibition zone (IZ) [10] [mm] | MIC (Streptococcus pneumoniae [11]) [µg/mL] | inhibition zone (IZ) (Geotrichum candidum [12]) [mm] | inhibition [13] | inhibition zone (IZ) [14] [mm] | inhibition zone (IZ) (Streptococcus pneumoniae [15]) [mm] | inhibition zone (IZ) (Aspergillus fumigatus [16]) [mm] | MIC (Aspergillus fumigatus [17]) [µg/mL] | MIC (Escherichia coli [18]) [µg/mL] | MIC [19] [µg/mL] | MIC (Geotrichum candidum [20]) [µg/mL] | inhibition zone (IZ) (Bacillus subtilis [21]) [mm] | other results
CCS/C(NC)=C(\C#N)C(=O)Nc1ccc(S(=O)(=O)Nc2onc(C)c2C)cc1 | inactive | 1.95 (≈ 4.48 µM) | 16.4 mm | 2.7 | 18.2 | 21.3 | 3.9 (≈ 8.95 µM) | 0.98 (≈ 2.25 µM) | 19.9 | 3.9 (≈ 8.95 µM) | 18.3 | inactive | 20.9 | 20.2 | 17.1 | 15.6 (≈ 35.9 µM) | 7.81 (≈ 17.9 µM) | 1.95 (≈ 4.48 µM) | 7.81 (≈ 17.9 µM) | 21.2 | Ratio [5]: 2; MIC (Proteus vulgaris [6]): 31.2 µg/mL (≈ 71.8 µM)
CCN/C(SCC)=C(/C#N)C(=O)Nc1ccc(S(=O)(=O)Nc2onc(C)c2C)cc1 | inactive | 0.49 (≈ 1.09 µM) | 19.6 mm | 8.5 | 20.6 | 23.2 | 3.9 (≈ 8.68 µM) | 0.12 (≈ 0.267 µM) | 20.3 | 0.12 (≈ 0.267 µM) | 20.4 | inactive | 22.8 | 24.3 | 21.6 | 0.98 (≈ 2.18 µM) | 1.95 (≈ 4.34 µM) | 0.49 (≈ 1.09 µM) | 3.9 (≈ 8.68 µM) | 26.3 | Ratio (Bacillus subtilis [22]): 2; Ratio [5]: 2; MIC (Proteus vulgaris [6]): 3.9 µg/mL (≈ 8.68 µM)
C=CCN/C(S[C@@H]1O[C@H](COC(C)=O)[C@@H](OC(C)=O)[C@H](OC(C)=O)[C@H]1OC(C)=O)=C(/C#N)C(=O)Nc1ccc(S(=O)(=O)Nc2onc(C)c2C)cc1 | inactive | 0.49 (≈ 0.642 µM) | inactive | 15.2 | 23.4 | 23.2 | 1.95 (≈ 2.55 µM) | 0.98 (≈ 1.28 µM) | 24.4 | 1.95 (≈ 2.55 µM) | 23.2 | inactive | 25.6 | 26.7 | 26.1 | 0.98 (≈ 1.28 µM) | 3.9 (≈ 5.11 µM) | 3.9 (≈ 5.11 µM) | 0.49 (≈ 0.642 µM) | 28.6 | Ratio (Escherichia coli [23]): 4; Ratio [5]: 2; Ratio (Aspergillus fumigatus [24]): 4 to 6; Ratio (Geotrichum candidum [25]): 3 to 5
C=CCN/C(S[C@@H]1O[C@H](COC(C)=O)[C@H](OC(C)=O)[C@H](OC(C)=O)[C@H]1OC(C)=O)=C(/C#N)C(=O)Nc1ccc(S(=O)(=O)Nc2onc(C)c2C)cc1 | inactive | 0.98 (≈ 1.28 µM) | 15.2 mm | 28.6 | 18.3 | 21.2 | 15.6 (≈ 20.5 µM) | 0.98 (≈ 1.28 µM) | 17.2 | 3.9 (≈ 5.11 µM) | 20.2 | inactive | 17.1 | 19.3 | 18.3 | 7.81 (≈ 10.2 µM) | 7.81 (≈ 10.2 µM) | 15.6 (≈ 20.5 µM) | 3.9 (≈ 5.11 µM) | 20.8 | Ratio (Escherichia coli [23]): 3; Ratio (Klebsiella pneumoniae [26]): 4; Ratio [27]: 1 to 3; MIC (Proteus vulgaris [6]): 62.5 µg/mL (≈ 81.8 µM); Ratio (Aspergillus fumigatus [24]): 1 to 3; Ratio (Geotrichum candidum [25]): 2
CCN/C(S[C@@H]1O[C@H](COC(C)=O)[C@@H](OC(C)=O)[C@H](OC(C)=O)[C@H]1OC(C)=O)=C(/C#N)C(=O)Nc1ccc(S(=O)(=O)Nc2onc(C)c2C)cc1 | inactive | 0.98 (≈ 1.3 µM) | 21.4 mm |  | 21.3 | 18.8 | 15.6 (≈ 20.8 µM) | 1.95 (≈ 2.59 µM) | 21.3 | 3.9 (≈ 5.19 µM) | 22.1 | inactive | 24.7 | 25.3 | 24.2 | 3.9 (≈ 5.19 µM) | 7.81 (≈ 10.4 µM) | 3.9 (≈ 5.19 µM) | 0.98 (≈ 1.3 µM) | 27.5 | MIC (Proteus vulgaris [6]): 7.81 µg/mL (≈ 10.4 µM); Ratio (Aspergillus fumigatus [24]): 4 to 6; Ratio (Geotrichum candidum [25]): 3 to 5
